Square brackets hold non-standard residues; d marks the D form. Peptide text beside a SMILES is read from it. * marks the point of attachment. Phe(4-F) = N[C@@H](Cc1ccc(F)cc1)C(=O)O; hArg = N=C(N)NCCCC[C@H](N)C(=O)O; Cha = N[C@@H](CC1CCCCC1)C(=O)O; X1 = CC(=O)C(Cc1ccccc1)N*
The compounds below were run against Prothrombin (Homo sapiens, UniProt P00734).

| Compound | Ki [µM] |
| --- | --- |
| NC(N)=NCCCC(N)C(=O)N1CCCC1C(=O)N1CCCC1C(=O)NCC(=O)NC(Cc1ccccc1)C(=O)NC(CO)C(=O)N1CCCC1C(=O)NC(Cc1ccccc1)C(=O)O (centres undefined) [CAS_58-82-2] | > 10 |
| H-SLIGKV-NH2 [CAS_190383-13-2] | > 10 |
| H-FSLLRN-NH2 [FSLLRN-NH2] | > 10 |
| CC(=O)O[C@]1(C(C)=O)CC[C@H]2[C@@H]3C[C@H](C)C4=CC(=O)CC[C@]4(C)C3CC[C@@]21C (some centres undefined) | > 10 |
| CC(C)C[C@H](NC(=O)CNC(=O)[C@H](CC(N)=O)NC(=O)[C@H](CCCCN)NC(=O)[C@H](CC(=O)O)NC(=O)[C@H](CO)NC(=O)[C@H](Cc1ccccc1)NC(=O)[C@H](CO)NC(=O)[C@H](CCCNC(=N)N)NC(=O)[C@H](Cc1cnc[nH]1)NC(=O)[C@H](CC(N)=O)NC(=O)CNC(=O)[C@@H](NC(=O)[C@H](C)NC(=O)[C@H](Cc1cnc[nH]1)NC(=O)[C@@H]1CCCN1C(=O)CNC(=O)[C@H](CC(C)C)NC(=O)[C@H](CC(C)C)NC(=O)[C@H](Cc1ccc(O)cc1)NC(=O)CNC(=O)[C@H](C)NC(=O)[C@H](CO)NC(=O)[C@H](CC(N)=O)NC(=O)[C@H](CC(C)C)NC(=O)[C@@H](NC(=O)[C@H](Cc1c[nH]c2ccccc12)NC(=O)CN)[C@@H](C)O)C(C)C)C(=O)N[C@H](C(=O)N[C@@H](CO)C(=O)O)[C@@H](C)O [Galanin, Human] | > 10 |
| CCC(C)C(NC(=O)C(CO)NC(=O)C(CC(N)=O)NC(=O)C(CC(C)C)NC(=O)C(Cc1ccc(O)cc1)NC(=O)C(CCCCN)NC(=O)C(CCCCN)NC(=O)C(NC(=O)C(C)NC(=O)C(CCSC)NC(=O)C(CCC(N)=O)NC(=O)C(CCCCN)NC(=O)C(CCCN=C(N)N)NC(=O)C(CC(C)C)NC(=O)C(CCCN=C(N)N)NC(=O)C(NC(=O)C(Cc1ccc(O)cc1)NC(=O)C(CC(N)=O)NC(=O)C(CC(=O)O)NC(=O)C(NC(=O)C(Cc1ccccc1)NC(=O)C(NC(=O)C(C)NC(=O)C(CC(=O)O)NC(=O)C(CO)NC(=O)C(N)Cc1cnc[nH]1)C(C)C)C(C)O)C(C)O)C(C)C)C(=O)NC(CC(C)C)C(=O)NC(CC(N)=O)C(=O)O (centres undefined) [CAS_37221-79-7] | > 10 |
| CC(C)C[C@H](NC(=O)[C@H](CC(C)C)NC(=O)[C@H](Cc1ccccc1)NC(=O)[C@@H](N)CO)C(=O)N[C@@H](CCCN=C(N)N)C(=O)N[C@@H](CC(N)=O)C(N)=O [CAS_141923-40-2] | 0.168 |
| CCC(C)C(NC(=O)C(Cc1ccc(O)cc1)NC(=O)C(NC(=O)C(CCCN=C(N)N)NC(=O)C(N)CC(=O)O)C(C)C)C(=O)NC(Cc1cnc[nH]1)C(=O)NC(Cc1cnc[nH]1)C(=O)N1CCCC1C(=O)NC(Cc1ccccc1)C(C)=O (centres undefined) [NSC_439662] (H-DRVYIHHP-X1; configuration not given here) | > 10 |
| C[C@H](N)C(=O)N[C@@H](Cc1ccc(F)cc1)C(=O)N[C@@H](CCCN=C(N)N)C(=O)N[C@@H](CC1CCCCC1)C(=O)N[C@@H](CCCCN=C(N)N)C(=O)N[C@@H](Cc1ccccc1)C(N)=O [L-Ala-4-Fluoro-L-Phe-L-Arg-3-cyclohexyl-L-Ala-N-amidino-L-Lys-L-Phe-NH2] (H-A[Phe(4-F)]R[Cha][hArg]F-NH2) | 0.024 |
| CSCC[C@H](NC(=O)[C@H](CC(C)C)NC(=O)CNC(=O)[C@H](Cc1ccccc1)NC(=O)[C@H](Cc1ccccc1)NC(=O)[C@H](CCC(N)=O)NC(=O)[C@H](CCC(N)=O)NC(=O)[C@@H]1CCCN1C(=O)[C@H](CCCCN)NC(=O)[C@@H]1CCCN1C(=O)[C@@H](N)CCCN=C(N)N)C(N)=O [Arg-Pro-Lys-Pro-Gln-Gln-Phe-Phe-Gly-Leu-Met NH2] | > 10 |

More lines, now with the values ahead:

| Ki [µM] | Compound |
| --- | --- |
| > 10 | CSCCC(NC(=O)C(CC(C)C)NC(=O)CNC(=O)C(NC(=O)C(Cc1ccccc1)NC(=O)C(CO)NC(=O)C(CC(=O)O)NC(=O)C(NC(=O)C(CCCCN)NC(=O)C(N)Cc1cnc[nH]1)C(C)O)C(C)C)C(N)=O (stereo not drawn) [Neurokinin alpha] |
| 0.54 | CC(C)C[C@H](NC(=O)[C@H](CC(C)C)NC(=O)[C@H](Cc1ccccc1)NC(=O)[C@@H](N)CO)C(=O)N[C@@H](CCCN=C(N)N)C(=O)N[C@@H](CC(N)=O)C(=O)O [SFLLRN-OH] |
| > 10 | CC(C)C[C@H](NC(=O)[C@H](CC(C)C)NC(=O)[C@H](Cc1ccccc1)NC(=O)[C@@H](N)CO)C(=O)N[C@@H](CCCN=C(N)N)C(=O)O [SFLLR-OH] |
| 1.1 | CC(C)CC(NC(=O)C(Cc1ccccc1)NC(=O)C(N)CO)C(=O)NC(CC(C)C)C(=O)NC(CCCN=C(N)N)C(=O)NC(CC(N)=O)C(=O)N1CCCC1C(=O)NC(CC(N)=O)C(=O)NC(CC(=O)O)C(=O)NC(CCCCN)C(=O)NC(Cc1ccc(O)cc1)C(=O)NC(CCC(=O)O)C(=O)N1CCCC1C(=O)NC(Cc1ccccc1)C(=O)O (centres undefined) [SFLLRNPNDKYEPF-OH] (H-SFLLRNPNDKYEPF-OH; configuration not given here) |
